Reference: patent US6737383B1, “Herbicidal oxadiazolidines” (priority 1999, dated 2004)

Experiments:
maize hybrid P33G26 = experiment: Test G maize injury with safener-treated seed; details: 28 days after application
Method in brief: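 Maize hybrid P33G26 seed, treated with dichlormid, fenchlorazole-ethyl or naphthalic anhydride or left untreated, was sown in soil pots, then sprayed pre-emergence with several compound rates at 310 L/ha. Plants grew in a greenhouse (14 h day, about 27/24 °C day/night), with 4–5 replicates. Injury was scored visually against untreated controls 28 days after application.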

windgrass = experiment: Test E windgrass; assay type: in vivo, Apera spica-venti; details: Postemergence
Method in brief: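 Postemergence: spray at 1–4 leaf stage, soil 60:40 sandy loam:potting mix; solvent + surfactant formulation; greenhouse 21–28 d; visual injury vs untreated controls.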

common poppy = experiment: Test E common poppy; assay type: in vivo, Papaver rhoeas; details: Preemergence
Green foxtail [1] = experiment: Test D green foxtail; assay type: in vivo; details: Postemergence, 0 to 100 scale
Green foxtail [2] = experiment: Test D green foxtail; assay type: in vivo; details: Postemergence, 0 to 100 scale, 0 no injury, 100 complete control
Green foxtail [3] = experiment: Test D green foxtail; assay type: in vivo; details: Postemergence, 0 to 100 scale; remark: listed apart in the source

C=CCn1c(=O)on(C(=O)N(c2ccc(F)cc2)C(C)C)c1=O [Compound 146]
Mean plant response rating, maize (maize hybrid P33G26; Safener Dichlormid (seed treatment), Rate 140 g ai/ha): 1 percent control
Mean plant response rating, maize (maize hybrid P33G26; Safener Dichlormid (seed treatment), Rate 280 g ai/ha): 1 percent control
Mean plant response rating, maize (maize hybrid P33G26; Safener Dichlormid (seed treatment), Rate 560 g ai/ha): 4 percent control
Mean plant response rating, maize (maize hybrid P33G26; Safener Dichlormid (seed treatment), Rate 1120 g ai/ha): 4 percent control
Mean plant response rating, maize (maize hybrid P33G26; Safener Fenchlorazole-ethyl (seed treatment), Rate 140 g ai/ha): 3 percent control
Mean plant response rating, maize (maize hybrid P33G26; Safener Fenchlorazole-ethyl (seed treatment), Rate 280 g ai/ha): 74 percent control
Mean plant response rating, maize (maize hybrid P33G26; Safener Fenchlorazole-ethyl (seed treatment), Rate 560 g ai/ha): 78 percent control
Mean plant response rating, maize (maize hybrid P33G26; Safener Fenchlorazole-ethyl (seed treatment), Rate 1120 g ai/ha): 85 percent control
Mean plant response rating, maize (maize hybrid P33G26; Safener None, Rate 140 g ai/ha): 49 percent control
Mean plant response rating, maize (maize hybrid P33G26; Safener None, Rate 280 g ai/ha): 73 percent control
Mean plant response rating, maize (maize hybrid P33G26; Safener None, Rate 560 g ai/ha): 80 percent control
Mean plant response rating, maize (maize hybrid P33G26; Safener None, Rate 1120 g ai/ha): 85 percent control
Mean plant response rating, maize (maize hybrid P33G26; Safener naphthalic anhydride (seed treatment), Rate 140 g ai/ha): 0 percent control
Mean plant response rating, maize (maize hybrid P33G26; Safener naphthalic anhydride (seed treatment), Rate 1120 g ai/ha): 35 percent control
Plant response rating, Windgrass (windgrass; Rate 62 g/ha, 0 to 100 scale): 85
Windgrass plant response rating (windgrass; Rate 250 g/ha, 0 to 100 scale where 0 is no effect and 100 is complete control): 95
Plant response rating, Common poppy (common poppy; Rate 125 g/ha, 0 to 100 scale (0 no effect, 100 complete control)): 100
Common poppy plant response rating (0 to 100 scale) (common poppy; Rate 250 g/ha): 100
Plant response rating, Common poppy (common poppy; Rate 500 g/ha, 0 to 100 scale where 0 is no effect and 100 is complete control): 100

CC(C)N(C(=O)n1oc(=O)n(C2CC2)c1=O)c1ccc(F)cc1F [Compound 299]
Plant response rating, Green foxtail (Green foxtail [1]; Rate 250 g/ha): 100
Plant response rating, Green foxtail (Green foxtail [1]; Rate 500 g/ha): 100
Green foxtail plant response rating (Green foxtail [2]; Rate 64 g/ha): 100
Green foxtail plant response rating (Green foxtail [2]; Rate 125 g/ha): 100
Plant response rating, Green foxtail (Green foxtail [3]; Rate 250 g/ha): 100
Plant response rating, Green foxtail (Green foxtail [3]; Rate 500 g/ha): 100
